Active and inactive are the calls of the source. The rule behind the calls is not given here.
molecular target: Serine/threonine-protein kinase mTOR (Homo sapiens) (UniProt P42345); assay: binders of mTOR FRB domain, biophysical, NMR (AID 1648); settings: NMR binding to FRB domain, chemical shift
Sequence (P42345 2015-2114): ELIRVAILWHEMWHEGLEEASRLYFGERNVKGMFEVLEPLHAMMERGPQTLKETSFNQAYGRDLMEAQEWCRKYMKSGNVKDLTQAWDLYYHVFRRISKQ

Compound	Kd
C[C@]12CCC3C(CC[C@H]4C[C@@H](O)CC[C@]34C)C1CCC2=O (some centres not stated)	> 4 mM (inactive)
CN(C)S(=O)(=O)c1ccc(C(=O)NN)cc1	> 4 mM (inactive)
O=C1C2CCCCC2C(=O)N1c1ccc(O)cc1 (configuration not stated)	> 4 mM (inactive)
O=c1ccc2ccccc2o1	> 4 mM (inactive)
CC1(C)C=CC(=O)[C@@]2(C)C1CC(=O)[C@]1(C)C2CC[C@@]2(C)[C@H](c3ccoc3)OC(=O)C3OC321 (some centres not stated)	> 4 mM (inactive)
O=C(O)c1cc(=O)[nH]c2ccccc12	> 4 mM (inactive)
Cc1nccc(-c2cccc(N)c2)n1	> 4 mM (inactive)
CN(C)C(=O)CCNS(=O)(=O)c1ccccc1	> 4 mM (inactive)
OCc1nc2ccccc2s1	> 4 mM (inactive)
O=C1CSC(=Nc2ccc(F)cc2)N1	> 4 mM (inactive)
Cc1cc2ncc(C(=O)Nc3ccccc3)c(C)n2n1	> 4 mM (inactive)
Cc1nnc(N2CCN(Cc3ccccc3)CC2)[nH]c1=O	> 4 mM (inactive)
Cc1cc(OC(=O)c2ccco2)c([N+](=O)[O-])c(=O)[nH]1	> 4 mM (inactive)
c1coc(CNc2ncnc3nc[nH]c23)c1	> 4 mM (inactive)
O=C(O)c1ccccc1C(=O)Nc1ccccc1	> 4 mM (inactive)
CC(=O)Nc1ccc(S(=O)(=O)NC(N)=O)cc1	> 4 mM (inactive)
Nc1nc(-c2ccccc2)ns1	> 4 mM (inactive)
CNC(=O)C1CCCN(S(C)(=O)=O)C1 (configuration not stated)	> 4 mM (inactive)
CNc1ccccc1C(=O)O	> 4 mM (inactive)
O=C(Cc1c(F)cccc1Cl)Nc1ccncc1	> 4 mM (inactive)
NC(=O)C1CCN(C(=S)c2cccs2)CC1	> 4 mM (inactive)
O=C(Nc1ccccc1C(F)(F)F)N1CCCCCC1	> 4 mM (inactive)

Compound	Kd
O=C(NC12CC3CC(CC(C3)C1)C2)c1cnccn1	> 4 mM (inactive)
Cc1ccc(-c2nn(C)c(=O)c3ccccc23)cc1CO	> 4 mM (inactive)
Cc1occc(=O)c1O	> 4 mM (inactive)
N#CCSc1nnc2ccc3ccccc3n12	> 4 mM (inactive)
COc1cc(OC)c2ccc(=O)oc2c1	> 4 mM (inactive)
CC(C)C(=O)NC(=S)N1CCOCC1	> 4 mM (inactive)
N#Cc1cc2ccccc2nc1N	> 4 mM (inactive)
COc1ccc(C2(C)NC(=O)NC2=O)cc1 (configuration not stated)	> 4 mM (inactive)
O=C1CSC(=Nc2cc(Cl)ccc2Cl)N1	> 4 mM (inactive)
CC(=O)c1cccc(NC(=O)Nc2c(C)nn(C)c2C)c1	> 4 mM (inactive)
Nc1ccc(N2CCCCC2)cc1	> 4 mM (inactive)
OCc1sccc1-n1cccc1	> 4 mM (inactive)
CN=C(C)c1c(O)n(C)c(=O)n(C)c1=O	> 4 mM (inactive)
Nn1cnn2c(SCc3ccccc3)nnc12	> 4 mM (inactive)
COc1ccc(/C=C2\SC(N)=NC2=O)cc1	> 4 mM (inactive)
Cc1cc2cc3c(C)cc(=O)oc3c(C)c2o1	> 4 mM (inactive)
Nc1ccc(CCC(=O)O)cc1	> 4 mM (inactive)
CC(C)=NNC(=O)C(=O)NC(C)(C)C	> 4 mM (inactive)
c1ccc2nc3c(nc2c1)CCc1nonc1-3	> 4 mM (inactive)
CCCCCCCCCCCC1=C(O)C(=O)C=C(O)C1=O	> 4 mM (inactive)
Clc1ccc(-c2nnc3ccccn23)cc1	> 4 mM (inactive)
CC(=O)Nc1ccc(C(=O)N2CCOCC2)cc1Cl	> 4 mM (inactive)

Compound	Kd
OCC1COc2ccccc2O1 (configuration not stated)	> 4 mM (inactive)
NC(=O)c1ccc(-c2csnn2)cc1	> 4 mM (inactive)
CN(C)/C=N/S(=O)(=O)c1ccccc1	> 4 mM (inactive)
CC(=O)O[C@H]1C[C@@H](OC(C)=O)C(C)(C)C2C[C@@H](OC(C)=O)[C@]3(C)C(CC[C@@]4(C)[C@H](c5ccoc5)OC(=O)[C@H]5O[C@]543)[C@]21C (some centres not stated)	> 4 mM (inactive)
COn1c(=O)c(C)[n+]([O-])c2ccccc21	> 4 mM (inactive)
O=C(Nc1ccncc1)c1cncc(Br)c1	> 4 mM (inactive)
COc1nc(-c2ccccc2)ccc1-c1noc(C)n1	> 4 mM (inactive)
C/C=C/C(=O)Nc1ccc(NC(C)=O)cc1	> 4 mM (inactive)
Cc1occc1C(=O)NCc1ccncc1	> 4 mM (inactive)
COc1ccc(C2CC(=O)NN2)cc1OC1CCCC1 (configuration not stated)	> 4 mM (inactive)
Cc1cc(C)n(CC(=O)NC2CCCCC2)n1	> 4 mM (inactive)
CC(=O)OC1CCC2(C)C(=CC=C3C2CCC2(C)C3CCC2C(C)/C=C/C(C)C(C)C)C1(C)C (configuration not stated)	> 4 mM (inactive)
COc1cc2c(cc1OC)C1Cc3ccc(OC)c(OC)c3CN1CC2 (configuration not stated)	> 4 mM (inactive)
CC(C)NC(=O)c1nc2ccccc2s1	> 4 mM (inactive)
CC1CC[C@]2(NC1)O[C@H]1CC3C4CC[C@H]5C[C@@H](O)CC[C@]5(C)C4CC[C@]3(C)[C@H]1[C@@H]2C (some centres not stated)	> 4 mM (inactive)
COCCn1c(SC)nc2c1c(=O)[nH]c(=O)n2C	> 4 mM (inactive)
Cc1nnc(SCC(=O)N2CCc3ccccc32)s1	> 4 mM (inactive)
NC(=O)/C=C/C(=O)Nc1ccccc1	> 4 mM (inactive)
O=C(c1cc2ccccc2o1)c1nc2c(n1O)CCCCC2	> 4 mM (inactive)
O=c1[nH]c(N2CCOCC2)nc2ccccc12	> 4 mM (inactive)
c1csc(-c2nn[nH]n2)c1	> 4 mM (inactive)
O=C(CSc1ccc(Cl)cc1)N1CCOCC1	> 4 mM (inactive)

Compound	Kd
CS(=O)(=O)N1CCN(c2ncccn2)CC1	> 4 mM (inactive)
CC(=O)NCc1nc2ccccc2[nH]1	> 4 mM (inactive)
Cc1cc(C)nc(/N=C(/N)N2CCN(C)CC2)n1	> 4 mM (inactive)
CCS(=O)(=O)N1CCN(c2ccccc2F)CC1	> 4 mM (inactive)
O=C1CCCc2c1nc(-c1ccccc1)n2O	> 4 mM (inactive)
O=C1CSC(=Nc2cccc(C(F)(F)F)c2)N1	> 4 mM (inactive)
Nc1ccc(S(=O)(=O)N2CCOCC2)cc1	> 4 mM (inactive)
CN(C)c1oc(-c2ccccc2Cl)nc1C#N	> 4 mM (inactive)
COc1cccc2c(=O)n(CC(N)=O)ccc12	> 4 mM (inactive)
S=C(Nc1ccc2nccnc2c1)N1CCOCC1	> 4 mM (inactive)
O=S(=O)(CCN1CCCC1)c1ccccc1	> 4 mM (inactive)
Cc1cc(C)n2nc(Cc3ccccc3)nc2n1	> 4 mM (inactive)
Cc1nc(-c2ccccc2)ncc1CO	> 4 mM (inactive)
COC(=O)[C@@H]1OC(=O)[C@H]2O[C@@]23[C@@]1(C)CCC1[C@@]2(C)CCC(=O)C(C)(C)C2C[C@@H](OC(C)=O)[C@]13C (some centres not stated)	> 4 mM (inactive)
O=C(Nc1cccc2ncccc12)c1cccnc1	> 4 mM (inactive)
CN1C2CC[C@@H]1CC(OC(=O)[C@H](CO)c1ccccc1)C2 (some centres not stated)	> 4 mM (inactive)
Cc1ccc(CO)o1	> 4 mM (inactive)
CCn1nccc1C(=O)Nc1ccc(Cl)cc1Cl	> 4 mM (inactive)
Cc1ccccc1CSc1nncn1N	> 4 mM (inactive)
CC1(C)C(=O)C=C[C@@]2(C)C1C=C[C@]1(C)C2CC[C@@]2(C)[C@H](c3ccoc3)OC(=O)C3OC321 (some centres not stated)	> 4 mM (inactive)
COC(=O)c1cccs1	> 4 mM (inactive)

Source: PubChem BioAssay AID1648 (Sanford-Burnham Center for Chemical Genomics, 2009)
